pIC50: −log10 of the molar value.

Our source for the IC50 values is BindingDB's records for doi:10.1021/jm00117a021 (Syntex Research, 1988).

The target of assay [1] is Adenosylhomocysteinase (Oryctolagus cuniculus). As to the kind of experiment: Inhibition of S-adenosyl-homocysteine (AdoHcy)hydrolase from rabbit erythrocytes.
For assay [2] the target is unchanged. The description is as above. This is another data set of the same source.

One may read the pIC50 as the negative decadic logarithm of the IC50, by convention in mol/L. Higher therefore signals a low IC50. In assay [1], `Nc1ncnc2c1ncn2[C@@H](C=O)O[C@@H](C=O)CO` [Adenosine dialdehyde] gave a negative logarithm of the IC50 (pIC50) of 7.40. Turning to `Nc1ncnc2c1ncn2C1C(O)C(O)C(CO)C1O` (configuration not stated), the pIC50 in assay [2] is 4.55.
